Experimental findings from patent publication US11337976B2 (Plexxikon Inc., priority 2011, dated 2022) are described below.

This experiment relates to A375 melanoma cells (B-Raf V600E mutation). The experiment in a line: A375 (A375_P-ERK) cell activity / cell growth inhibition assay. The experiment is classed as cell-based, human. Particulars: Homo sapiens, A-375; A375 cells (text: A375_P-ERK). The protocol: Compounds are assessed in a variety of cell based assays. For example human cell lines with B-RafV600E mutation (A375 melanoma, SKMEL3 melanoma, and COLO205 colon adenocarcinoma), as well as tumorigenic cell lines with wild-type B-RAF (SW620 colon adenocarcinoma) or with Ras mutations (SKMEL2 melanoma and IPC298 melanoma).
On day 1, cells are counted, then centrifuged in a conical tube for 5 minutes at 1000 rpm.
On day 2, compound at a maximum concentration of 5 mM is serially diluted 1:3 (e.g. 10 μL with 30 μL dimethyl sulfoxide) for a total of 8 point titration with DMSO as a control. A 1 μL aliquot of each dilution point and control is added to 249 μL growth media and 50 μL is added to a well containing cells, providing 10 μM compound at the maximum concentration point. The cells are incubated for 3 days at 37° C. in 5% CO2.
ATPlite is added 25 μL to each well, shake for 2 minutes, and the cells are incubated at room temperature for 10 minutes, then luminescence is read on Safire reader. The measured luminescence correlates directly with cell number, such that the reading as a function of compound concentration is used to determine the IC50 value.
With `COCCN(C)S(=O)(=O)Nc1cccc(C(=O)c2c[nH]c3ncc(-c4cnc(C5CC5)nc4)cc23)c1F` [P-0085, 5-(2-cyclopropylpyrimidin-5-yl)-3-[2-fluoro-3-[[2-methoxyethyl(methyl)sulfamoyl]amino]benzoyl]-1H-pyrrolo[2,3-b]pyridine], the IC50 – broadly, the concentration at which inhibition is half-maximal – was < 1 µM.

For the molecule `COc1ncc(-c2cnc3[nH]cc(C(=O)c4cccc(NS(=O)(=O)N5CC(F)(F)C5)c4F)c3c2)cn1` [P-0088, 3,3-difluoro-N-[2-fluoro-3-[5-(2-methoxypyrimidin-5-yl)-1H-pyrrolo[2,3-b]pyridine-3-carbonyl]phenyl]azetidine-1-sulfonamide], the IC50 is < 1 µM.

`CCN(C)S(=O)(=O)Nc1cccc(C(=O)c2c[nH]c3ncnc(N[C@@H](C)C4CC4)c23)c1F` [P-0089, 4-[[(1 S)-1-cyclopropylethyl]amino]-5-[3-[[ethyl(methyl)sulfamoyl]amino]-2-fluoro-benzoyl]-7H-pyrrolo[2,3-d]pyrimidine]: the half-inhibitory concentration (IC50) was < 1 µM.

Turning to `N#Cc1ccc(-c2cnc3[nH]cc(C(=O)c4cccc(NS(=O)(=O)N5CCCC5)c4F)c3c2)cc1` [P-0090, N-[3-[5-(4-cyanophenyl)-1H-pyrrolo[2,3-b]pyridine-3-carbonyl]-2-fluoro-phenyl]pyrrolidine-1-sulfonamide], the 50% inhibitory concentration (IC50) was < 1 µM.

Turning to `Cc1ncc(-c2cnc3[nH]cc(C(=O)c4cccc(NS(=O)(=O)N5CCCC5)c4F)c3c2)cn1` [P-0092, N-[2-fluoro-3-[5-(2-methylpyrimidin-5-yl)-1H-pyrrolo[2,3-b]pyridine-3-carbonyl]phenyl]pyrrolidine-1-sulfonamide], the IC50 is < 1 µM.

With `N#Cc1cncc(-c2cnc3[nH]cc(C(=O)c4cccc(NS(=O)(=O)N5CCCC5)c4F)c3c2)c1` [P-0093, N-[3-[5-(5-cyano-3-pyridyl)-1H-pyrrolo[2,3-b]pyridine-3-carbonyl]-2-fluoro-phenyl]pyrrolidine-1-sulfonamide], the IC50 was < 1 µM.

With `N#Cc1ccc(-c2cnc3[nH]cc(C(=O)c4cccc(NS(=O)(=O)N5CCCC5)c4F)c3c2)cn1` [P-0094, N-[3-[5-(6-cyano-3-pyridyl)-1H-pyrrolo[2,3-b]pyridine-3-carbonyl]-2-fluoro-phenyl]pyrrolidine-1-sulfonamide], the IC50 was < 1 µM.

`O=C(c1cccc(NS(=O)(=O)N2CCCC2)c1F)c1c[nH]c2ncc(-c3ccc(C(F)(F)F)nc3)cc12` [P-0095, N-[2-fluoro-3-[5-[6-(trifluoromethyl)-3-pyridyl]-1H-pyrrolo[2,3-b]pyridine-3-carbonyl]phenyl]pyrrolidine-1-sulfonamide]: the IC50 is < 1 µM.

As for `Cc1ncc(-c2cnc3[nH]cc(C(=O)c4cccc(NS(=O)(=O)N(C)C)c4F)c3c2)cn1` [P-0097, 3-[3-(dimethylsulfamoylamino)-2-fluoro-benzoyl]-5-(2-methylpyrimidin-5-yl)-1H-pyrrolo[2,3-b]pyridine], the IC50 is < 1 µM.

Regarding `CN(C)S(=O)(=O)Nc1cccc(C(=O)c2c[nH]c3ncc(-c4cncc(C#N)c4)cc23)c1F` [P-0098, 5-(5-cyano-3-pyridyl)-3-[3-(dimethylsulfamoylamino)-2-fluoro-benzoyl]-1H-pyrrolo[2,3-b]pyridine], the IC50 was < 1 µM.

With `CN(C)S(=O)(=O)Nc1cccc(C(=O)c2c[nH]c3ncc(-c4ccc(C#N)nc4)cc23)c1F` [P-0099, 5-(6-cyano-3-pyridyl)-3-[3-(dimethylsulfamoylamino)-2-fluoro-benzoyl]-1H-pyrrolo[2,3-b]pyridine], the IC50 was < 1 µM.

Take `CCN(C)S(=O)(=O)Nc1cccc(C(=O)c2c[nH]c3ncc(-c4cnc(C#N)nc4)cc23)c1F` [P-0100, 5-(2-cyanopyrimidin-5-yl)-3-[3-[[ethyl(methyl)sulfamoyl]amino]-2-fluoro-benzoyl]-1H-pyrrolo[2,3-b]pyridine]: the IC50 was < 1 µM.

On to `CCN(C)S(=O)(=O)Nc1cccc(C(=O)c2c[nH]c3ncc(-c4ccc(C#N)nc4)cc23)c1F` [P-0102, 5-(6-cyano-3-pyridyl)-3-[3-[[ethyl(methyl)sulfamoyl]amino]-2-fluoro-benzoyl]-1H-pyrrolo[2,3-b]pyridine], for which the IC50 was < 1 µM.

For the molecule `CCN(C)S(=O)(=O)Nc1cccc(C(=O)c2c[nH]c3ncc(-c4ccc(C(C)(C)O)cc4)cc23)c1F` [P-0104, 3-[3-[[ethyl(methyl)sulfamoyl]amino]-2-fluoro-benzoyl]-5-[4-(1-hydroxy-1-methyl-ethyl)phenyl]-1H-pyrrolo[2,3-b]pyridine], the IC50 is < 1 µM.

With `CN(C)c1ncc(-c2cnc3[nH]cc(C(=O)c4cccc(NS(=O)(=O)N(C)C)c4F)c3c2)cn1` [P-0106, 5-[2-(dimethylamino)pyrimidin-5-yl]-3-[3-(dimethylsulfamoylamino)-2-fluoro-benzoyl]-1H-pyrrolo[2,3-b]pyridine], the IC50 is < 1 µM.

For `CN(C)S(=O)(=O)Nc1cccc(C(=O)c2c[nH]c3ncc(-c4cnc(N5CCCC5)nc4)cc23)c1F` [P-0107, 3-[3-(dimethylsulfamoylamino)-2-fluoro-benzoyl]-5-(2-pyrrolidin-1-ylpyrimidin-5-yl)-1H-pyrrolo[2,3-b]pyridine], the IC50 was < 1 µM.

For the molecule `O=C(c1cccc(NS(=O)(=O)N2CCCC2)c1F)c1c[nH]c2ncc(-c3cnc(N4CCCC4)nc3)cc12` [P-0109, N-[2-fluoro-3-[5-(2-pyrrolidin-1-ylpyrimidin-5-yl)-1H-pyrrolo[2,3-b]pyridine-3-carbonyl]phenyl]pyrrolidine-1-sulfonamide], the IC50 was < 1 µM.

With `CN(C)S(=O)(=O)Nc1cccc(C(=O)c2c[nH]c3ncc(I)cc23)c1F` [P-0110, 3-[3-(dimethylsulfamoylamino)-2-fluoro-benzoyl]-5-iodo-1H-pyrrolo[2,3-b]pyridine], the IC50 is < 1 µM.

Consider `CCCN(C)S(=O)(=O)Nc1cccc(C(=O)c2c[nH]c3ncc(-c4cnc(C)nc4)cc23)c1F` [P-0111, 3-[2-fluoro-3-[[methyl(propyl)sulfamoyl]amino]benzoyl]-5-(2-methylpyrimidin-5-yl)-1H-pyrrolo[2,3-b]pyridine], for which the IC50 was < 1 µM.

On to `Cc1ncc(-c2cnc3[nH]cc(C(=O)c4cccc(NS(=O)(=O)N(C)CC5CC5)c4F)c3c2)cn1` [P-0112, 3-[3-[[cyclopropylmethyl(methyl)sulfamoyl]amino]-2-fluoro-benzoyl]-5-(2-methylpyrimidin-5-yl)-1H-pyrrolo[2,3-b]pyridine], for which the half-maximal inhibitory concentration (IC50) was < 1 µM.

Turning to `CN(C)S(=O)(=O)Nc1cccc(C(=O)c2c[nH]c3ncc(-c4ccc(C5CC5)nc4)cc23)c1F` [P-0113, 5-(6-cyclopropyl-3-pyridyl)-3-[3-(dimethylsulfamoylamino)-2-fluoro-benzoyl]-1H-pyrrolo[2,3-b]pyridine], the IC50 was < 1 µM.

In the case of `CCCN(C)S(=O)(=O)Nc1cccc(C(=O)c2c[nH]c3ncc(-c4ccc(C5CC5)nc4)cc23)c1F` [P-0114, 5-(6-cyclopropyl-3-pyridyl)-3-[2-fluoro-3-[[methyl(propyl)sulfamoyl]amino]benzoyl]-1H-pyrrolo[2,3-b]pyridine], the IC50 is < 1 µM.

`CN(CC1CC1)S(=O)(=O)Nc1cccc(C(=O)c2c[nH]c3ncc(-c4ccc(C5CC5)nc4)cc23)c1F` [P-0115, 3-[3-[[cyclopropylmethyl(methyl)sulfamoyl]amino]-2-fluoro-benzoyl]-5-(6-cyclopropyl-3-pyridyl)-1H-pyrrolo[2,3-b]pyridine]: the IC50 was < 1 µM.

Consider `CCCN(C)S(=O)(=O)Nc1ccc(F)c(C(=O)c2c[nH]c3ncc(-c4cnc(OC)nc4)cc23)c1F` [P-0116, 3-[2,6-difluoro-3-[[methyl(propyl)sulfamoyl]amino]benzoyl]-5-(2-methoxypyrimidin-5-yl)-1H-pyrrolo[2,3-b]pyridine], for which the IC50 was < 1 µM.

In the case of `CCCNS(=O)(=O)Nc1cccc(C(=O)c2c[nH]c3ncc(I)cc23)c1F` [P-0117, [2-fluoro-3-(propylsulfamoylamino)phenyl]-(5-iodo-1H-pyrrolo[2,3-b]pyridin-3-yl)methanone], the IC50 is > 1 µM.

Regarding `CCC(C)S(=O)(=O)Nc1cccc(C(=O)c2c[nH]c3ncc(-c4cnc(OC)nc4)cc23)c1F` (stereo not drawn) [P-0224, N-[2-fluoro-3-[5-(2-methoxypyrimidin-5-yl)-1H-pyrrolo[2,3-b]pyridine-3-carbonyl]phenyl]butane-2-sulfonamide], the IC50 was < 1 µM.

As to `CCC(C)S(=O)(=O)Nc1cccc(C(=O)c2c[nH]c3ncc(-c4cnc(N5CCCC5)nc4)cc23)c1F` (stereo not drawn) [P-0225, N-[2-fluoro-3-[5-(2-pyrrolidin-1-ylpyrimidin-5-yl)-1H-pyrrolo[2,3-b]pyridine-3-carbonyl]phenyl]butane-2-sulfonamide], the IC50 is < 1 µM.

Take `CCC(C)S(=O)(=O)Nc1cccc(C(=O)c2c[nH]c3ncc(-c4cnc(NC5CC5)nc4)cc23)c1F` (stereo not drawn) [P-0226, N-[3-[5-[2-(cyclopropylamino)pyrimidin-5-yl]-1H-pyrrolo[2,3-b]pyridine-3-carbonyl]-2-fluoro-phenyl]butane-2-sulfonamide]: the IC50 was < 1 µM.

In the case of `CCC(C)S(=O)(=O)Nc1cccc(C(=O)c2c[nH]c3ncc(-c4ccc(C5(C#N)CC5)cc4)cc23)c1F` (stereo not drawn) [P-0227, N-[3-[5-[4-(1-cyanocyclopropyl)phenyl]-1H-pyrrolo[2,3-b]pyridine-3-carbonyl]-2-fluoro-phenyl]butane-2-sulfonamide], the IC50 is < 1 µM.

Take `CCC(C)S(=O)(=O)Nc1cccc(C(=O)c2c[nH]c3ncc(-c4cnc(C5CC5)nc4)cc23)c1F` (stereo not drawn) [P-0228, N-[3-[5-(2-cyclopropylpyrimidin-5-yl)-1H-pyrrolo[2,3-b]pyridine-3-carbonyl]-2-fluoro-phenyl]butane-2-sulfonamide]: the IC50 is < 1 µM.
